{"source": "patent US9994533B2", "about": "“Method of preparing ATG's analogue, and the application of ATG and it's analogue” (Longhua Hospital Shanghai University of Traditional Chinese …, priority 2016, dated 2018)", "key": {"[1]": {"target": "T1, Keratin, type I cytoskeletal 17 (Homo sapiens, UniProt Q04695)", "T1 construct": "endogenous in cells; host or cells: 293T", "T1 sequence (Q04695 1-432)": "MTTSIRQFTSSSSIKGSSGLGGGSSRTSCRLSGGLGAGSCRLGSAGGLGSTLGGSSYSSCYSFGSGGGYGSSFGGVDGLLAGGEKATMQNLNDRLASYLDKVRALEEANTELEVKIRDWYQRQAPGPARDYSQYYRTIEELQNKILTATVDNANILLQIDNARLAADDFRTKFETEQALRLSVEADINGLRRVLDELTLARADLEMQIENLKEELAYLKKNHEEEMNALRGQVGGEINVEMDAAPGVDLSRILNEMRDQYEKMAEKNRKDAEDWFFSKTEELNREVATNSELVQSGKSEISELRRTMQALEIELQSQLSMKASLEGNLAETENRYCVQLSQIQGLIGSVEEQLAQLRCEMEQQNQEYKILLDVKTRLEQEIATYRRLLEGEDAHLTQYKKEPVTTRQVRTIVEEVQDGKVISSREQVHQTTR", "assay": "DARTS mass spectrometry of 293T lysate after ATG", "type": "binding", "settings": "ATG 300 μM, pronase 1:1000, K1C17_HUMAN", "procedure": "(§1) 293T cells were digested with M-PER mammalian protein extraction buffer (78501 ThermoFisher) and phosphatase inhibitor (50 mM NaF, 10 mM β-glycerophosphate, 5 mM sodium pyrophosphate, 2 mM Na3VO4); and the protein concentration is determined by Bradford method (500-0006 Bio-rad). ATG was either added or not in the cell lysate. If added, the concentration of ATG was 300 μM. The cells were incubated at room temperature for 1 h. The cells were then lysed by incubating for 20 minutes at room temperature with different concentrations of pronase at 1:1000 (10165921001, Roche). The two groups of lysates are subjected to mass spectrometry and then compared."}, "[2]": {"target": "T2, Protein transport protein Sec61 subunit alpha isoform 1 (Homo sapiens, UniProt P61619)", "T2 construct": "endogenous in cells; host or cells: 293T", "T2 sequence (P61619 whole entry, canonical isoform)": "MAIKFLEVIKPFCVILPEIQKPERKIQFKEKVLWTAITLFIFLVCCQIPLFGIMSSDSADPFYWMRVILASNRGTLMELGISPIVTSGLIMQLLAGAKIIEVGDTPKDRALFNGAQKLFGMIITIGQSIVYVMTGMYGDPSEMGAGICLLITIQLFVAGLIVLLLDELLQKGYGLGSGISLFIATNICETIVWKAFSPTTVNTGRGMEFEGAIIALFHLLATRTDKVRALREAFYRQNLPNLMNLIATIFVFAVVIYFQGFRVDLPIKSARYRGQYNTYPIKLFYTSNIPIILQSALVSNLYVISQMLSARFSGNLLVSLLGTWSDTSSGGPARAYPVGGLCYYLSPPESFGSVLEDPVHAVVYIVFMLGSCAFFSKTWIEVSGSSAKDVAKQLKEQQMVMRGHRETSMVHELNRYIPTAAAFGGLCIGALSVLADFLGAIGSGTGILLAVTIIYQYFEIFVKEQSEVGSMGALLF", "assay": "DARTS mass spectrometry of 293T lysate after ATG", "type": "binding", "settings": "ATG 300 μM, pronase 1:1000, S61A1_HUMAN", "procedure": "as §1"}, "[3]": {"system": "NOX4 mRNA", "assay": "NOX4 mRNA expression in human immortal podocytes under high glucose (Realtime PCR)", "type": "cell-based", "settings": "FIG. 7", "excerpt": "The detection method of Western Blot and mRNA used in the present embodiment is a detection method commonly used by person skilled in the art, and the specific detection method is described in “Molecular Biology Laboratory Manual” (People's Military Medical Press, published in 2011 Jun. 1). 3.1 Western blot and Realtime PCR confirmed that ATG in human immortal podocytes can inhibit the overexpression of NOX4 caused by high glucose stimuli, see table 5 and FIG. 6. The expression of NOX4 in the total protein, membrane protein and mitochondrial protein of human immortal podocytes was detected in the experiment."}, "[4]": {"system": "NOX4", "assay": "NOX4 protein expression in glomeruli of STZ-eNOS−/− mice (Western Blot)", "type": "in vivo", "settings": "for NOX4/GAPDH mean: glomeruli, Western Blot", "excerpt": "The detection method of Western Blot and mRNA used in the present embodiment is a detection method commonly used by person skilled in the art, and the specific detection method is described in “Molecular Biology Laboratory Manual” (People's Military Medical Press, published in 2011 Jun. 1). 2. ATG can decrease NOX4's protein and mRNA expression in glomeruli of STZ-eNOS^−/− mice."}, "[5]": {"system": "PP2A", "assay": "PP2A activity in immortal podocytes (PP2A activity kit)", "type": "cell-based", "settings": "1 hour", "procedure": "Immortal podocytes were stimulated with ATG at concentrations of 0, 1.0 μm, 3.3 μm, and 10 μm, and the stimulation time was 1 hour. The activity of PP2A was detected by PP2A activity kit (R & D systems, DYC3309-2)."}, "[6]": {"system": "NOX4", "assay": "NOX4 protein expression in human immortal podocytes under high glucose (Western blot)", "type": "cell-based", "settings": "ATG 10 μmol/L", "excerpt": "The detection method of Western Blot and mRNA used in the present embodiment is a detection method commonly used by person skilled in the art, and the specific detection method is described in “Molecular Biology Laboratory Manual” (People's Military Medical Press, published in 2011 Jun. 1). 3.1 Western blot and Realtime PCR confirmed that ATG in human immortal podocytes can inhibit the overexpression of NOX4 caused by high glucose stimuli, see table 5 and FIG. 6. The expression of NOX4 in the total protein, membrane protein and mitochondrial protein of human immortal podocytes was detected in the experiment. […] The meanings of the symbols in FIG. 6 are as follows: HG: high glucose (glucose […]); T: total protein; Tmeb cell membrane protein; Mito: mitochondrial protein."}, "[7]": {"target": "T3, Serine/threonine-protein phosphatase 2A catalytic subunit beta isoform (Homo sapiens, UniProt P62714)", "T3 construct": "endogenous in cells; host or cells: 293T", "T3 sequence (P62714 whole entry, canonical isoform)": "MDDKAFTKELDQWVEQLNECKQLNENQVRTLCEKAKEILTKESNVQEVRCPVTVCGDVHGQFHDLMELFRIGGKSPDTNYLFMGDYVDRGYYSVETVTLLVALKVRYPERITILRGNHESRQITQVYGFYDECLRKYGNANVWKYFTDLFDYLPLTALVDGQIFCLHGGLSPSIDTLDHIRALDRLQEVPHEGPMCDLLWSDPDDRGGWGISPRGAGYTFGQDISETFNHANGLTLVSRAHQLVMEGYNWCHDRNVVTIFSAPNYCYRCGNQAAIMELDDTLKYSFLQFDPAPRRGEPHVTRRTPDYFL", "assay": "DARTS mass spectrometry of 293T lysate after ATG", "type": "binding", "procedure": "as §1\n(§2) Furthermore, since the content of PP2A in cells is very low in the normal state, it is considered that the binding ratio of ATG and PP2A is high."}, "[8]": {"target": "T4, Tubulin beta-6 chain (Homo sapiens, UniProt Q9BUF5)", "T4 construct": "endogenous in cells; host or cells: 293T", "T4 sequence (Q9BUF5 whole entry)": "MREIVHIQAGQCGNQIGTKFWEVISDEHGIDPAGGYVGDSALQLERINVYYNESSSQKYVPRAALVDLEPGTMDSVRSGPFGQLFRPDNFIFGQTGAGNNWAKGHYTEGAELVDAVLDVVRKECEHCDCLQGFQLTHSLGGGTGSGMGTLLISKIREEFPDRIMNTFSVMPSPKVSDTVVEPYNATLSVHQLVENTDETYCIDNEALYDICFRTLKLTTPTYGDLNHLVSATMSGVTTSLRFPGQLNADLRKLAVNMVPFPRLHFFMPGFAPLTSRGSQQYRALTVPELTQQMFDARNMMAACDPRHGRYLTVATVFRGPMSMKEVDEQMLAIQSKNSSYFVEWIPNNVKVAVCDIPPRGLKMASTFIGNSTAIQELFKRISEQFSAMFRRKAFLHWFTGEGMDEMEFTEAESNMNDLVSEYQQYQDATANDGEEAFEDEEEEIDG", "T4 sequence (P68363 whole entry partner)": "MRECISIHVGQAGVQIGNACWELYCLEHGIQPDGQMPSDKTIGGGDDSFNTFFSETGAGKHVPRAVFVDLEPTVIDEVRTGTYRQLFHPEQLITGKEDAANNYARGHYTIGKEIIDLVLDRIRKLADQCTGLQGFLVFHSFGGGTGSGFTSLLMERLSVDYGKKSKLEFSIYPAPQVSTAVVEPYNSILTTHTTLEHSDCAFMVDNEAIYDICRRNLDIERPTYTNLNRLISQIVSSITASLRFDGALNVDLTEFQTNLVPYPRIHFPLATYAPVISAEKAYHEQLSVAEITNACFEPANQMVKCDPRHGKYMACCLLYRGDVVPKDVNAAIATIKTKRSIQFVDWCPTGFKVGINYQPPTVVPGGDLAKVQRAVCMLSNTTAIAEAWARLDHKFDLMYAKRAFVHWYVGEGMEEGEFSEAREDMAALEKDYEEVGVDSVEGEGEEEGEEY", "assay": "DARTS mass spectrometry of 293T lysate after ATG", "type": "binding", "settings": "ATG 300 μM, pronase 1:1000, TBB6_HUMAN", "procedure": "as §1, §2"}, "[9]": {"target": "T5, Tubulin beta-3 chain (Homo sapiens, UniProt Q13509)", "T5 construct": "endogenous in cells; host or cells: 293T", "T5 sequence (Q13509 whole entry)": "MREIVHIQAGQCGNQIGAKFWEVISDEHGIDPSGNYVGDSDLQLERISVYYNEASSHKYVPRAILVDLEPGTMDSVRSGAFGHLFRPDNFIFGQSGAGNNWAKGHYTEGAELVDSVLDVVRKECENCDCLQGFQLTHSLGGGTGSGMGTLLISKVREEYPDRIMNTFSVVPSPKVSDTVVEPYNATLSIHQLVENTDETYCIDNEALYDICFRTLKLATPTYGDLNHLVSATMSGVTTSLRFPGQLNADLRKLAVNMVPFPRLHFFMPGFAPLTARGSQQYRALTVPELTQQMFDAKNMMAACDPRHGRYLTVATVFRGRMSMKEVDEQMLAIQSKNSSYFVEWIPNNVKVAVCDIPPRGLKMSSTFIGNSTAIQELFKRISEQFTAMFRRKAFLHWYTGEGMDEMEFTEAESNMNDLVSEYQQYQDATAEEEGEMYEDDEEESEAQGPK", "T5 sequence (P68363 whole entry partner)": "as the sequence (P68363 whole entry partner) above", "assay": "DARTS mass spectrometry of 293T lysate after ATG", "type": "binding", "settings": "ATG 300 μM, pronase 1:1000, TBB3_HUMAN", "procedure": "as §1, §2"}, "[10]": {"settings": "ATG 300 μM, pronase 1:1000, PP2AB_HUMAN"}}, "data": [{"compound": "COc1cc(C[C@H]2C(=O)OC[C@@H]2Cc2ccc(OC)c(OC)c2)ccc1O", "note": "[ATG, Arctigenin]", "values": [{"measurement": "Ratio (ATG/DMSO)", "setting": "[1]", "value": 4.7}, {"measurement": "Spectral Count (ATG)", "setting": "[1]", "value": 7}, {"measurement": "Ratio (ATG/DMSO)", "setting": "[2]", "value": 4.7}, {"measurement": "Spectral Count (ATG)", "setting": "[2]", "value": 7}, {"measurement": "overexpression of NOX4 mRNA induced by high glucose", "setting": "[3]", "value": "able to inhibit the overexpression of NOX4 mRNA"}, {"measurement": "NOX4/GAPDH mean", "setting": "[4]; Normal group-ATG", "value": 0.13}, {"measurement": "NOX4/GAPDH mean", "setting": "[4]; STZ-ATG", "value": 0.14}, {"measurement": "NOX4's protein expression in glomerular, versus untreated group", "setting": "[4]; STZ-eNOS mice administered with ATG", "value": "significantly less than that of the untreated group"}, {"measurement": "activity of PP2A, dependence on concentration", "setting": "[5]; ATG 0 to 10 μm", "value": "increased with the increase of ATG concentration"}, {"measurement": "PP2A activity values, mean", "setting": "[5]; ATG 1.0 μm", "value": 0.0268}, {"measurement": "PP2A activity values, mean", "setting": "[5]; ATG 3.3 μm", "value": 0.0279}, {"measurement": "PP2A activity values, mean", "setting": "[5]; ATG 10 μm", "value": 0.0484}, {"measurement": "T-NOX4/β-actin mean", "setting": "[6]; High glucose-ATG, total protein, podocytes", "value": 1.13}, {"measurement": "expression of NOX4 in total protein, membrane protein and mitochondrial protein", "setting": "[6]; high glucose, FIG. 6", "value": "can inhibit the expression of NOX4 in the above three kinds of structures"}, {"measurement": "Ratio (ATG/DMSO)", "setting": "[7]; [10]", "value": 7.8}, {"measurement": "Spectral Count (ATG)", "setting": "[7]; [10]", "value": 14}, {"measurement": "binding ratio of ATG and PP2A", "setting": "[7]; conclusion from mass spectrometry", "value": "high"}, {"measurement": "Ratio (ATG/DMSO)", "setting": "[8]", "value": 13.6}, {"measurement": "Spectral Count (ATG)", "setting": "[8]", "value": 25}, {"measurement": "Ratio (ATG/DMSO)", "setting": "[9]", "value": 25.6}, {"measurement": "Spectral Count (ATG)", "setting": "[9]", "value": 49}]}]}
